Reference: patent publication US8324422B2, “Enhydrazone esters for treating asthma, allergy and inflammation” (Kuwait University, priority 2008, dated 2012)

Key:
[1] = tested on: mouse peritoneal macrophages; assay: viability of macrophages after overnight incubation; type: cell-based
[2] = tested on: human peripheral blood eosinophils; assay: viability of eosinophils at concentrations that abolished EPO release; type: cell-based
Source text: In untreated cells, C5a induced the release of 20-30% of the total cellular content of EPO.

[3] = tested on: human peripheral blood eosinophils; assay: complement C5a-stimulated degranulation (EPO release) of human eosinophils; type: cell-based; conditions: for IC50: C5a (30 nM) + cytochalasin B, 10 min pre-incubation, 30 min at 37° C., read-out: concentration achieving 50% inhibition of EPO release; for effect on EPO release at high concentration: at the concentrations of 300 nM and above
Description: Example 1 involves the testing of the effect of complement C5a-induced degranulation of human blood eosinophils, and IgE-dependent degranulation of mast cells. Human peripheral blood eosinophils were purified to >98% by the immunomagnetic method. Aliquots containing 2.5×10^4 cells were added to each well of a 96-well microplate. The cells were separately pre-incubated for 10 minutes with CEE-1, CEE-2 or the drug solvent (DMSO) and then subsequently stimulated with recombinant human complement C5a (30 nM) in the presence of cytochalasin B (5 μg/mL). The reaction was allowed to proceed for 30 minutes at 37° C. The amount of the granular eosinophil peroxidases (EPO) released into the supernatant (as index of degranulation) was determined by the o-phenylenediamine method. The amount of EPO released was expressed as a percentage of the total cell content.
Cells were incubated with the each of CEE-1 and CEE-2 for 10 minutes before stimulation. Control uninhibited releases were in the range of 20-30% of total cell content. Results are shown as mean±SD, n=4.

[4] = tested on: mouse peritoneal macrophages; assay: LPS-stimulated release of TNF-α from mouse peritoneal macrophages; type: cell-based; conditions: for IC50: LPS 1 μg/mL for 18 hours, 30 min pre-treatment, ELISA, read-out: concentration that achieved 50% inhibition of TNF-α release
Description: The antiinflammatory effect of CEE-1 and CEE-2 was tested on LPS-stimulated release of tumor necrotic factor-α (TNF-α) from mouse peritoneal macrophages. Thioglycollate-induced peritoneal macrophages were obtained by peritoneal lavage of Balb c mice. Macrophages purified by adherence to plastic plate were cultured in a supplemented RPMI medium and pre-treated with CEE-1, CEE-2 or their solvent (DMSO) for 30 minutes before being stimulated with LPS (1 μg/mL) for 18 hours. The amount of TNF-α released into the supernatant was determined by ELISA using commercially available kits.
FIG. 4 illustrates the inhibitory effect of CEE-1 and CEE-2 on the release of TNF-α from LPS-stimulated mouse peritoneal macrophages. Cells were pre-treated with the drugs for 30 minutes before stimulation with LPS (1 μg/mL). The net uninhibited releases were in the range of 130-185 pg/ml. Values are shown as mean±SD, n=3.

RBL-2H3 mast cells [5] = assay: antigen induced IgE-mediated degranulation (β-hexoseaminidase release) of mast cells (RBL-2H3); type: cell-based, rat; conditions: anti-DNP IgE sensitized, DNP-BSA 100 ng/mL, 10 min pre-treatment; read-out: concentration achieving 50% inhibition of β-hexoseaminidase release
Description: The anti-allergic effect was tested on IgE-dependent mast cell degranulation using the rat basophilic leukemia (RBL-2H3) cell line model. The cells were passively sensitized with 0.5 μg/mL anti-DNP monoclonal IgE antibody for 1 hour, and then washed twice to remove unbound antibody. They were then separately pre-treated with CEE-1, CEE-2 or their solvent (DMSO) for 10 minutes before being stimulated with the specific antigen DNP-BSA (100 ng/mL). After 30 minutes of incubation, the amount of granular β-hexoseaminidase released into the supernatant (index of degranulation) was determined photometrically.
FIG. 3 illustrates the inhibition of antigen induced IgE-mediated degranulation (β-hexoseaminidase release) of mast cells (RBL-2H3) by CEE-1 and CEE-2. Cells were incubated with CEE-1 and CEE-2 for 10 minutes before stimulation. Control uninhibited releases were in the range of 15-26% of total cell content. Results are shown as mean±SD, n=3.

RBL-2H3 mast cells [6] = tested on: RBL-2H3 mast cells

| Compound | viability of the cells [1] | viability of the cells [2] | IC50 [3] [nM] | effect on EPO release at high concentration [3] | IC50 [4] [nM] | effect on TNF-α release at 10 μM [4] | IC50 (RBL-2H3 mast cells [5]) [nM] | cellular toxicity (trypan blue exclusion test) (RBL-2H3 mast cells [6]) |
| --- | --- | --- | --- | --- | --- | --- | --- | --- |
| COC(=O)C1C(=O)C=C(NNc2ccccc2)CC1c1ccccc1 (stereo not shown) [CEE-2, methyl 4-phenylhydrazinocyclohex-3-en-2-oxo-6-phenyl-1-oate] | no effect on their viability | did not significantly affect the viability of the cells | 94 | completely abolished EPO release | 82 | completely abolished the release | 1200 | no cellular toxicity |
| CCOC(=O)C1C(=O)C=C(NNc2ccccc2)CC1c1ccccc1 (stereo not shown) [CEE-1, ethyl 4-phenylhydrazinocyclohex-3-en-2-oxo-6-phenyl-1-oate] | no effect on their viability | did not significantly affect the viability of the cells | 45 | completely abolished EPO release | 80 | completely abolished the release | 800 | no cellular toxicity |
